Assay results as given in patent US12084420B2, “Indoline compounds for inhibiting KIF18A” (Volastra Therapeutics, Inc., priority 2021, dated 2024).

These compounds were tested against hKIF18A (1-374) (Homo sapiens (Human), UniProt Q8NI77) (assay: Inhibition of KIF18A microtubule-dependent ATPase activity (ADP-Glo)). Conditions: KIF18A microtubule-dependent ATPase activity, biochemical assay.
hKIF18A (1-374), sequence (Q8NI77 whole entry, looked up): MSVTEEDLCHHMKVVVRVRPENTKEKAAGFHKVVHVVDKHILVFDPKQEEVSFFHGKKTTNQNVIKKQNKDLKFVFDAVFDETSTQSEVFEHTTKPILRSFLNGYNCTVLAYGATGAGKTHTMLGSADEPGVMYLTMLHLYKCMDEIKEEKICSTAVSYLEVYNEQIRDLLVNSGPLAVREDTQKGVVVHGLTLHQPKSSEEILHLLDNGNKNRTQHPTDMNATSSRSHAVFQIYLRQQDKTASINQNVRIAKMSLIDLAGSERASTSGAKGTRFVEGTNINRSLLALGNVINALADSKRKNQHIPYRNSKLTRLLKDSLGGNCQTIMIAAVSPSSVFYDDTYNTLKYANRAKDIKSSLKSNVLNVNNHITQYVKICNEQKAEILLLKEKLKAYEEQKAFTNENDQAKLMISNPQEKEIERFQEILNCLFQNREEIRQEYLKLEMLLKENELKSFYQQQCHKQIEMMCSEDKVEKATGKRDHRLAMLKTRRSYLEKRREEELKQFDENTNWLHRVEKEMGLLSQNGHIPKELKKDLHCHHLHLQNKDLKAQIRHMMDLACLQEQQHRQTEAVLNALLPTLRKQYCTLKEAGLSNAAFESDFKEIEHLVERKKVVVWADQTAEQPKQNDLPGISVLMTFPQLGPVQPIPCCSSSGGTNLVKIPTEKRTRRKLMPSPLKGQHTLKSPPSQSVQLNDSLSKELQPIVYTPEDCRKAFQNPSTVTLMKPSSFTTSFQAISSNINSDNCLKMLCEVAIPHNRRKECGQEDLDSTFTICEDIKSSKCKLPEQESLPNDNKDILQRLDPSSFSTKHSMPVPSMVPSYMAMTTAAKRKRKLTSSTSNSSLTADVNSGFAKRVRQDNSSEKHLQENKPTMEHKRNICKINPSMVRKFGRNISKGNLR
hKIF18A (1-374), sequence (Q2XVP4 whole entry partner, looked up): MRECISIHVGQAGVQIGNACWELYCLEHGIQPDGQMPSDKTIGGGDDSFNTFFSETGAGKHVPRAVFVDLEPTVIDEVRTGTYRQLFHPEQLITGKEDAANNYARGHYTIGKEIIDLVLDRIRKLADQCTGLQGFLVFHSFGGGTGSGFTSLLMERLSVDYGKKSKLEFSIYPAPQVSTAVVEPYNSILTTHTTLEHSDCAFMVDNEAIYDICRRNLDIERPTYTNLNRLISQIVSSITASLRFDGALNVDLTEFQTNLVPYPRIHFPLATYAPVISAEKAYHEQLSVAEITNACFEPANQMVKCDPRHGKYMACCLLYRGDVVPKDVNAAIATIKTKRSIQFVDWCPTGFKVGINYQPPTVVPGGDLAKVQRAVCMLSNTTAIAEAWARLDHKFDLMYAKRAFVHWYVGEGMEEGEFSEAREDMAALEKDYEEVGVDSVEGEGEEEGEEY
hKIF18A (1-374), sequence (P02554 whole entry partner, looked up): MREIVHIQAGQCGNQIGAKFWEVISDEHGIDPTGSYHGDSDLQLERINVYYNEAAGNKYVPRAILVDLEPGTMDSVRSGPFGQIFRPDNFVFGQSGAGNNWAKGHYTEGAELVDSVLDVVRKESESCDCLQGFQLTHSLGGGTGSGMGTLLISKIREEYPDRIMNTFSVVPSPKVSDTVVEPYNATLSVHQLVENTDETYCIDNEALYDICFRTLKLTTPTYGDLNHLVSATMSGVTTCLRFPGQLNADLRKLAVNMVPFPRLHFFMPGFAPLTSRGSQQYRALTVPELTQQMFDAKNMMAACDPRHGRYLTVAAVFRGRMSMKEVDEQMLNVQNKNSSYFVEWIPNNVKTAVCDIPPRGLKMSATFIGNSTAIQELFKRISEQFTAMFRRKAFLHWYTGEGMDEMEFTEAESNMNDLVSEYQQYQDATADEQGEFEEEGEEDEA

| SMILES | IC50 |
| --- | --- |
| CS(=O)(=O)Nc1ccc2c(c1)C1(CCCCC1)CN2C(=O)c1cccc(S(=O)(=O)N2CCCCC2)c1 [Compound 240, N-(1′-(3-(piperidin-1-ylsulfonyl)benzoyl)spiro[cyclohexane-1,3′-indolin]-5′-yl)methanesulfonamide] | 0.04 µM |
| CS(=O)(=O)Nc1ccc2c(c1)C1(CCC3(CC3)CC1)CN2C(=O)c1cccc(C(=O)C2CCCC2)c1 [Compound 164, N-(1″-(3-(cyclopentanecarbonyl)benzoyl)dispiro[cyclopropane-1,1′-cyclohexane-4′,3″- indolin]-5″-yl)methanesulfonamide] | 0.12 µM |
| CS(=O)(=O)c1ccc2c(c1)C1(CCCCC1)CN2C(=O)c1cccc(S(=O)(=O)N2CCCCC2)c1 [Compound 250, (5′-(methylsulfonyl)spiro[cyclohexane-1,3′-indolin]-1′-yl)(3-(piperidin-1-ylsulfonyl)phenyl)methanone] | 0.67 µM |
| CC1CN(S(=O)(=O)c2cccc(C(=O)N3CC4(CCCCC4)c4cc(NS(C)(=O)=O)ccc43)c2)CCO1 (stereo not shown) [Compound 107, N-(1′-(3-((2-methylmorpholino)sulfonyl)benzoyl)spiro[cyclohexane-1,3′-indolin]-5′-yl)methanesulfonamide] | 0.47 µM |
| COCCS(=O)(=O)Nc1ccc2c(c1)C1(CCC3(CC3)CC1)CN2C(=O)c1cccc(S(=O)(=O)NC(C)(C)C)c1 [Compound 300, N-(tert-butyl)-3-(5″-((2-methoxyethyl)sulfonamido)dispiro [cyclopropane-1,1′-cyclohexane-4′,3″- indoline]-1″- carbonyl)benzenesulfonamide] | 0.031 µM |
| CC(C)(CO)NS(=O)(=O)c1cccc(C(=O)N2CC3(CCC4(CC4)CC3)c3cc(NS(C)(=O)=O)ccc32)c1 [Compound 220, N-(1-hydroxy-2-methylpropan-2-yl)-3-(5″- (methylsulfonamido)dispiro[cyclopropane-1,1′-cyclohexane-4′,3″-indoline]-1″-carbonyl)benzenesulfonamide] | 0.025 µM |
| CS(=O)(=O)Nc1ccc2c(c1)C1(CCC3(CC3)CC1)CN2C(=O)c1cccc([S+]([O-])C2CCCC2)c1 (stereo not shown) [Compound 270, N-(1″-(3-(cyclopentylsulfinyl)benzoyl)dispiro [cyclopropane-1,1′-cyclohexane-4′,3″- indolin]-5″-yl)methanesulfonamide] | 0.11 µM |
| CS(=O)(=O)Nc1ccc2c(c1)C1(CCC3(CC3)CC1)CN2C(=O)c1cc(C(O)C2CCCC2)cs1 (stereo not shown) [Compound 364, N-(1″-(4-(cyclopentyl(hydroxy)methyl)thiophene-2-carbonyl)dispiro[cyclopropane-1,1′-cyclohexane-4′,3″-indolin]-5″- yl)methanesulfonamide] | 0.0051 µM |
| CC(C)(C)[C@@H](O)c1ccc(C(=O)N2CC3(CCC4(CC4)CC3)c3cc(NS(=O)(=O)CCO)ccc32)o1 (single isomer, unassigned) [Compound 371a] | 0.03 µM |
| CCC1=CCC2(CC1)CN(C(=O)c1cccc(S(=O)(=O)NC(C)(C)C)c1)c1ccc(NS(C)(=O)=O)cc12 (stereo not shown) [Compound 31, N-(tert-butyl)-3-(4-ethyl-5′-(methylsulfonamido)spiro[cyclohexane-1,3′-indolin]-3-en-1′-carbonyl)benzenesulfonamide] | 0.039 µM |
| CS(=O)(=O)Nc1ccc2c(c1)C1(CCC3(CC3)CC1)CN2C(=O)c1csc(C(O)C2CCCC2)c1 (stereo not shown) [Compound 301, N-(1″-(5-(cyclopentyl(hydroxy)methyl)thiophene-3-carbonyl)dispiro[cyclopropane-1,1′-cyclohexane-4′,3″-indolin]-5″-yl)methanesulfonamide] | 0.021 µM |
| CCS(=O)(=O)Nc1ccc2c(c1)C1(CCC(F)(F)CC1)CN2C(=O)c1cc(S(=O)(=O)N2CC3(CCC3)C2)cs1 [Compound 272, N-(1′-(4-((2-azaspiro[3.3]heptan-2-yl)sulfonyl)thiophene-2-carbonyl)-4,4-difluorospiro[cyclohexane-1,3′-indolin]-5′-yl)ethanesulfonamide] | 0.038 µM |
| CC1=CCC2(CC1)CN(C(=O)c1cccc(S(=O)(=O)NC(C)(C)C)c1)c1ccc(NS(C)(=O)=O)cc12 (stereo not shown) [Compound 295, N-(tert-butyl)-3-(4-methyl-5′-(methylsulfonamido)spiro[cyclohexane-1,3′-indolin]-3-en-1′-carbonyl)benzenesulfonamide] | 0.038 µM |
| CC1(F)CCC2(CC1)CN(C(=O)c1cccc(S(=O)(=O)NC(C)(C)C)c1)c1ccc(NS(C)(=O)=O)cc12 (stereo not shown) [Compound 329, N-(tert-butyl)-3-(4-fluoro-4-methyl-5′-(methylsulfonamido)spiro[cyclohexane-1,3′-indoline]-1′-carbonyl)benzenesulfonamide] | 0.072 µM |

Continued, values first:

| IC50 | SMILES |
| --- | --- |
| 0.0093 µM | CC1(NS(=O)(=O)c2cccc(C(=O)N3CC4(CCC5(CC5)CC4)c4cc(NS(C)(=O)=O)ccc43)c2)CC1 [Compound 216, N-(1-methylcyclopropyl)-3-(5″- (methylsulfonamido)dispiro[cyclopropane-1,1′-cyclohexane-4′,3″-indoline]-1″-carbonyl)benzenesulfonamide] |
| 0.015 µM | CCC(C)NS(=O)(=O)c1cccc(C(=O)N2CC3(CCC4(CC4)CC3)c3cc(NS(C)(=O)=O)ccc32)c1 (stereo not shown) [Compound 170, N-(sec-butyl)-3-(5″- (methylsulfonamido)dispiro[cyclopropane-1,1′-cyclohexane-4′,3″-indoline]-1″-carbonyl)benzenesulfonamide] |
| 0.013 µM | CC1(NS(=O)(=O)c2cccc(C(=O)N3CC4(CCC5(CC5)CC4)c4cc(NS(C)(=O)=O)ccc43)c2)CSC1 [Compound 226, 3-(5″- (methylsulfonamido)dispiro[cyclopropane-1,1′-cyclohexane-4′,3″-indoline]-1″-carbonyl)-N-(3-methylthietan-3-yl)benzenesulfonamide] |
| 0.0052 µM | COc1ccc(C(=O)N2CC3(CCC4(CC4)CC3)c3cc(NS(C)(=O)=O)ccc32)cc1S(=O)(=O)NC12CC(C1)C2 [Compound 311, N-(bicyclo[1.1.1]pentan-1-yl)-2-methoxy-5-(5″-(methylsulfonamido)dispiro[cyclopropane-1,1′-cyclohexane-4′,3″-indoline]-1″- carbonyl)benzenesulfonamide] |
| 0.0085 µM | CS(=O)(=O)Nc1ccc2c(c1)[C@]1(CC[C@@H](C(F)F)CC1)CN2C(=O)c1cccc(S(=O)(=O)NC23CC(C2)C3)c1 [Compound 336a] |
| 0.023 µM | CC1CCC2(C1)CN(C(=O)c1cccc(S(=O)(=O)N3CCC(F)(F)CC3)c1)c1ccc(NS(C)(=O)=O)cc12 (stereo not shown) [Compound 23, N-(1′-(3-((4,4-difluoropiperidin-1-yl)sulfonyl)benzoyl)-3-methylspiro[cyclopentane-1,3′-indolin]-5′-yl)methanesulfonamide] |
| 0.016 µM | CC(C)C(C)NS(=O)(=O)c1cccc(C(=O)N2CC3(CCC4(CC4)CC3)c3cc(NS(C)(=O)=O)ccc32)c1 (stereo not shown) [Compound 210, N-(3-methylbutan-2-yl)-3-(5″- (methylsulfonamido)dispiro[cyclopropane-1,1′-cyclohexane-4′,3″-indoline]-1″-carbonyl)benzenesulfonamide] |
| 0.051 µM | CN(C1CC(F)(F)C1)S(=O)(=O)c1cccc(C(=O)N2CC3(CCC4(CC4)CC3)c3cc(NS(C)(=O)=O)ccc32)c1 [Compound 356, N-(3,3-difluorocyclobutyl)-N-methyl-3-(5″- (methylsulfonamido)dispiro[cyclopropane-1,1′-cyclohexane-4′,3″-indoline]-1″-carbonyl)benzenesulfonamide] |
